{"source": "patent US20230167467A1", "about": "“METHODS AND COMPOSITIONS FOR THE PRODUCTION OF ISOBUTENE” (University of Alaska Anchorage, priority 2020, published 2023)", "key": {"[1]": {"system": "Engineered strains of E. coli", "format": "cell-based"}, "[2]": {"settings": "at 20° C.; cited from earlier work"}, "3-HIV": {"system": "3-HIV", "settings": "expressed in E. coli, plasmid based system, synthetic media; cited from earlier work"}, "[3]": {"settings": "cited from earlier work; for Isobutene production: purified M3K"}, "[4]": {"settings": "after solvent exposure, vs positive control"}}, "note": "Read-outs that look alike come from different tables or passages of the source.", "data": [{"molecule": "C=C(C)C", "note": "[isobutene]", "values": [{"measurement": "expression of accBC (fatty acid biosynthesis)", "setting": "[1]", "result": "downregulated"}, {"measurement": "expression of bssRS (decreasing biofilm material)", "setting": "[1]", "result": "upregulated"}, {"measurement": "expression of chaperone genes groLS and dnaJK", "setting": "[1]", "result": "increased expression"}, {"measurement": "expression of gad genes", "setting": "[1]", "result": "increase in expression"}, {"measurement": "expression of gadABCE (acid resistance via GABA production)", "setting": "[1]", "result": "upregulated"}, {"measurement": "expression of glpABC (glycerol to glycerone phosphate)", "setting": "[1]", "result": "increased in expression"}, {"measurement": "expression of heat shock proteins and chaperones hslJORUV", "setting": "[1]", "result": "no significant changes in expression"}, {"measurement": "expression of ibpAB", "setting": "[1]", "result": "strong upregulation"}, {"measurement": "expression of ibpAB and clpAB (protein protection and repair)", "setting": "[1]", "result": "increased"}, {"measurement": "expression of marA", "setting": "[1]", "result": "upregulated"}, {"measurement": "change in expression of gene adiA", "setting": "[1]; [4]", "result": "0.47 ± 0.86"}, {"measurement": "change in expression of gene adiC", "setting": "[1]; [4]", "result": "−1.83 ± 1.03"}, {"measurement": "change in expression of gene adiY", "setting": "[1]; [4]", "result": "0.21 ± 0.65"}, {"measurement": "change in expression of gene bhsA", "setting": "[1]; [4]", "result": "0.43 ± 0.86"}, {"measurement": "change in expression of gene bssR", "setting": "[1]; [4]", "result": "3.93 ± 0.44"}, {"measurement": "change in expression of gene bssS", "setting": "[1]; [4]", "result": "3.75 ± 0.84"}, {"measurement": "change in expression of gene clpA", "setting": "[1]; [4]", "result": "1.73 ± 0.64"}, {"measurement": "change in expression of gene clpB", "setting": "[1]; [4]", "result": "2.85 ± 0.69"}, {"measurement": "change in expression of gene clpP", "setting": "[1]; [4]", "result": "0.09 ± 0.59"}, {"measurement": "change in expression of gene coaA", "setting": "[1]; [4]", "result": "−4.22 ± 0.95"}, {"measurement": "change in expression of gene coaD", "setting": "[1]; [4]", "result": "−3.52 ± 1.24"}, {"measurement": "change in expression of gene cspA", "setting": "[1]; [4]", "result": "−8.13 ± 0.67"}, {"measurement": "change in expression of gene cspB", "setting": "[1]; [4]", "result": "−9.03 ± 1.74"}, {"measurement": "change in expression of gene cspC", "setting": "[1]; [4]", "result": "−2.50 ± 0.94"}, {"measurement": "change in expression of gene cspD", "setting": "[1]; [4]", "result": "3.12 ± 0.58"}, {"measurement": "change in expression of gene cspE", "setting": "[1]; [4]", "result": "−0.85 ± 0.63"}, {"measurement": "change in expression of gene cspF", "setting": "[1]; [4]", "result": "−7.27 ± 1.56"}, {"measurement": "change in expression of gene dhaK", "setting": "[1]; [4]", "result": "2.25 ± 0.59"}, {"measurement": "change in expression of gene dhaL", "setting": "[1]; [4]", "result": "0.48 ± 0.65"}, {"measurement": "change in expression of gene dnaJ", "setting": "[1]; [4]", "result": "0.17 ± 0.70"}, {"measurement": "change in expression of gene dnaK", "setting": "[1]; [4]", "result": "2.71 ± 0.66"}, {"measurement": "change in expression of gene fabA", "setting": "[1]; [4]", "result": "−2.35 ± 0.81"}, {"measurement": "change in expression of gene fabB", "setting": "[1]; [4]", "result": "−0.08 ± 0.68"}, {"measurement": "change in expression of gene fabD", "setting": "[1]; [4]", "result": "−1.92 ± 0.54"}, {"measurement": "change in expression of gene flgA", "setting": "[1]; [4]", "result": "−3.93 ± 1.72"}, {"measurement": "change in expression of gene flgB", "setting": "[1]; [4]", "result": "−7.15 ± 1.90"}, {"measurement": "change in expression of gene flgC", "setting": "[1]; [4]", "result": "−8.24 ± 2.24"}, {"measurement": "change in expression of gene flgD", "setting": "[1]; [4]", "result": "−6.54 ± 2.06"}, {"measurement": "change in expression of gene flgE", "setting": "[1]; [4]", "result": "−7.58 ± 1.51"}, {"measurement": "change in expression of gene flgF", "setting": "[1]; [4]", "result": "−7.63 ± 1.96"}, {"measurement": "change in expression of gene flgG", "setting": "[1]; [4]", "result": "−6.35 ± 1.72"}, {"measurement": "change in expression of gene flgH", "setting": "[1]; [4]", "result": "−4.44 ± 1.88"}, {"measurement": "change in expression of gene gabD", "setting": "[1]; [4]", "result": "−0.64 ± 1.36"}, {"measurement": "change in expression of gene gabP", "setting": "[1]; [4]", "result": "−3.65 ± 1.55"}, {"measurement": "change in expression of gene gabT", "setting": "[1]; [4]", "result": "−1.79 ± 1.38"}, {"measurement": "change in expression of gene gadA", "setting": "[1]; [4]", "result": "1.22 ± 0.68"}, {"measurement": "change in expression of gene gadB", "setting": "[1]; [4]", "result": "2.70 ± 0.79"}, {"measurement": "change in expression of gene gadC", "setting": "[1]; [4]", "result": "3.17 ± 0.80"}, {"measurement": "change in expression of gene gadE", "setting": "[1]; [4]", "result": "1.75 ± 0.60"}, {"measurement": "change in expression of gene gadW", "setting": "[1]; [4]", "result": "−4.21 ± 1.02"}, {"measurement": "change in expression of gene gadX", "setting": "[1]; [4]", "result": "−1.69 ± 0.57"}, {"measurement": "change in expression of gene gadY", "setting": "[1]; [4]", "result": "−1.72 ± 0.78"}, {"measurement": "change in expression of gene glpA", "setting": "[1]; [4]", "result": "9.06 ± 0.87"}, {"measurement": "change in expression of gene glpB", "setting": "[1]; [4]", "result": "6.10 ± 0.63"}, {"measurement": "change in expression of gene glpC", "setting": "[1]; [4]", "result": "6.02 ± 0.80"}, {"measurement": "change in expression of gene groL", "setting": "[1]; [4]", "result": "2.61 ± 0.57"}, {"measurement": "change in expression of gene groS", "setting": "[1]; [4]", "result": "1.62 ± 0.50"}, {"measurement": "change in expression of gene hchA", "setting": "[1]; [4]", "result": "3.41 ± 0.60"}, {"measurement": "change in expression of gene hslJ", "setting": "[1]; [4]", "result": "−1.24 ± 0.71"}, {"measurement": "change in expression of gene hslO", "setting": "[1]; [4]", "result": "−0.29 ± 0.66"}, {"measurement": "change in expression of gene hslR", "setting": "[1]; [4]", "result": "−0.04 ± 0.67"}, {"measurement": "change in expression of gene hslU", "setting": "[1]; [4]", "result": "0.23 ± 0.56"}, {"measurement": "change in expression of gene hslV", "setting": "[1]; [4]", "result": "−1.15 ± 0.66"}, {"measurement": "change in expression of gene ibpA", "setting": "[1]; [4]", "result": "3.97 ± 1.21"}, {"measurement": "change in expression of gene ibpB", "setting": "[1]; [4]", "result": "3.99 ± 1.50"}, {"measurement": "change in expression of gene lhgO", "setting": "[1]; [4]", "result": "−1.00 ± 1.77"}, {"measurement": "change in expression of gene lipA", "setting": "[1]; [4]", "result": "−1.56 ± 0.63"}, {"measurement": "change in expression of gene lipB", "setting": "[1]; [4]", "result": "−4.07 ± 0.88"}, {"measurement": "change in expression of gene narG", "setting": "[1]; [4]", "result": "4.31 ± 0.65"}, {"measurement": "change in expression of gene narH", "setting": "[1]; [4]", "result": "3.55 ± 0.61"}, {"measurement": "change in expression of gene narI", "setting": "[1]; [4]", "result": "1.31 ± 0.94"}, {"measurement": "change in expression of gene narJ", "setting": "[1]; [4]", "result": "2.32 ± 0.68"}, {"measurement": "change in expression of gene narK", "setting": "[1]; [4]", "result": "−0.07 ± 0.89"}, {"measurement": "change in expression of gene potA", "setting": "[1]; [4]", "result": "−5.02 ± 0.89"}, {"measurement": "change in expression of gene potB", "setting": "[1]; [4]", "result": "−4.42 ± 1.50"}, {"measurement": "change in expression of gene potC", "setting": "[1]; [4]", "result": "−3.91 ± 1.44"}, {"measurement": "change in expression of gene pspA", "setting": "[1]; [4]", "result": "7.14 ± 0.55"}, {"measurement": "change in expression of gene pspB", "setting": "[1]; [4]", "result": "4.56 ± 0.68"}, {"measurement": "change in expression of gene rpoA", "setting": "[1]; [4]", "result": "−0.01 ± 0.44"}, {"measurement": "change in expression of gene rpoB", "setting": "[1]; [4]", "result": "−0.34 ± 0.40"}, {"measurement": "change in expression of gene rpoC", "setting": "[1]; [4]", "result": "−0.44 ± 0.39"}, {"measurement": "change in expression of gene rpoD", "setting": "[1]; [4]", "result": "−0.24 ± 0.70"}, {"measurement": "change in expression of gene rpoE", "setting": "[1]; [4]", "result": "−1.87 ± 0.62"}, {"measurement": "change in expression of gene rpoH", "setting": "[1]; [4]", "result": "0.42 ± 0.52"}, {"measurement": "change in expression of gene rpoN", "setting": "[1]; [4]", "result": "−1.57 ± 0.49"}, {"measurement": "change in expression of gene rpoS", "setting": "[1]; [4]", "result": "0.24 ± 0.48"}, {"measurement": "change in expression of gene rpoZ", "setting": "[1]; [4]", "result": "−2.12 ± 0.55"}, {"measurement": "change in expression of gene spy", "setting": "[1]; [4]", "result": "2.48 ± 0.88"}, {"measurement": "change in expression of gene tatA", "setting": "[1]; [4]", "result": "−1.83 ± 0.52"}, {"measurement": "change in expression of gene tatB", "setting": "[1]; [4]", "result": "−2.68 ± 0.61"}, {"measurement": "change in expression of gene tatC", "setting": "[1]; [4]", "result": "−3.61 ± 1.20"}, {"measurement": "change in expression of gene tatD", "setting": "[1]; [4]", "result": "−4.46 ± 1.28"}, {"measurement": "change in expression of gene tatE", "setting": "[1]; [4]", "result": "0.70 ± 0.64"}, {"measurement": "number of genes with significant changes in expression", "setting": "[1]; vs control, Bon Ferroni corrected p-value<0.05", "result": 1384, "unit": "genes"}, {"measurement": "aqueous solubility", "setting": "[2]", "result": 30, "unit": "µg/mL"}]}, {"molecule": "M3K: mevalonate-3-kinase of Picrophilus torridus, enzyme and gene/transcript (optimized gene SEQ ID NO:1) (protein, optimized gene; M3K optimized gene) MENYNVKTRAFPTIGIILLGGISDKKNRIPLHTTAGIAYTGINNDVYTETKLYVSKDEKSYIDGKEIDLNSDRSPSKVIDKFKHEILMRVNLDDENNLSIDSRNFNILSGSSDSGAAALGECIESIFEYNINIFTFENDLQRISESVGRSLYGGLTVNYANGRESLTEPLLEPEAFNNFTIIGAHFNIDRKPSNEIHENIIKHENYRERIKSAERKAKKLEELSRNANIKGIFELAESDTVEYHKMLHDVGVDIINDRMENLIERVKEMKNNFWNSYIVTGGPNVFVITEKKDVDKAMEGLNDLCDDIRLLKVAGKPQVISKNF", "values": [{"measurement": "isobutene production rates", "setting": "3-HIV", "result": "up to 507 pmol min^−1 g cells^−1"}, {"measurement": "highest overall bioproduction of isobutene", "setting": "[3]; purified M3K enzyme with 3-HIV, 50° C.", "result": "2,880±140 pmol/min*mg protein"}, {"measurement": "Isobutene production", "setting": "[3]; 30° C.", "result": "26±2", "unit": "pmol*min-1 *mg protein"}, {"measurement": "Isobutene production", "setting": "[3]; 50° C.", "result": "2,880±140 pmol*min-1 *mg protein"}]}]}
